Test results published in patent US12409156B2, “Stable aqueous hydroxycarbamide solution” (Nova Bio-Pharma Product Development LTD, priority 2018, dated 2025).

What was measured:
[1] = Rat toxicology studies; type: in vivo; conditions: compared with hydroxycarbamide (hydroxyurea)
Description: Importantly, the composition disclosed in U.S. Pat. No. 3,119,866 is only stable as a dry composition, after evaporation of all water. […] After this time unacceptable levels of degradation products are present in the aqueous solution. As a result, it has previously been considered that the use of pH buffers such as potassium citrate and citric acid/sodium citrate to stabilise solutions of hydroxycarbamide is not effective. At temperatures between 2° C. and 8° C., the applicant has discovered that the main degradation product of hydroxycarbamide solutions is carbamoyloxyurea. The International Conference on Harmonisation of Technical Requirements for Registration of Pharmaceuticals for Human Use (ICH) stipulates that the maximum allowable limit for any degradant in a formulation should not exceed 0.15% w/v, at therapeutic doses of hydroxycarbamide in the treatment of sickle cell disease. […] As a result, the European Medicines Agency has now accepted that carbamoyloxyurea contents of up to 0.5% w/v are acceptable.

[2] = cited from earlier work
[3] = test system: six organisms tested; assay: Preservative efficacy study
Description: In parallel to this work, a preservative efficacy study was performed to investigate the effectiveness of the preservative system.

| SMILES | risk in rat toxicology studies [1] | variation of exposure for a given dosing regime ([2]; adult patients) | differences in exposure at the same mg/kg dose ([2]; paediatric patients) | antimicrobial activity [3] |
| --- | --- | --- | --- | --- |
| NC(=O)NOC(N)=O [carbamoyloxyurea] | does not pose a risk over and above hydroxycarbamide | – | – | – |
| NC(=O)NO [hydroxycarbamide, Hydroxycarbamide] | – | approximately five-fold | two to three-fold | able to inhibit the growth of six organisms tested |
